The results in this text go back to US5234932A, “Substituted quinolines and leucotriene antagonism treatment therewith” (Leo Pharmaceutical Products ltd., priority 1989, dated 1993).

Structures can show the parent of a compound that is named as a salt.

For orientation: Kb means the affinity of an antagonist, worked out from how it opposes an agonist. By IC50 is commonly meant the concentration that gives 50% inhibition. A higher IC50 goes with lower potency.

The target of one test is T1, 5-lipoxygenase (Rattus norvegicus, UniProt P12527).
T1 construct: LTB4 and 5-HETE measured by TLC
T1 sequence (P12527 1-673): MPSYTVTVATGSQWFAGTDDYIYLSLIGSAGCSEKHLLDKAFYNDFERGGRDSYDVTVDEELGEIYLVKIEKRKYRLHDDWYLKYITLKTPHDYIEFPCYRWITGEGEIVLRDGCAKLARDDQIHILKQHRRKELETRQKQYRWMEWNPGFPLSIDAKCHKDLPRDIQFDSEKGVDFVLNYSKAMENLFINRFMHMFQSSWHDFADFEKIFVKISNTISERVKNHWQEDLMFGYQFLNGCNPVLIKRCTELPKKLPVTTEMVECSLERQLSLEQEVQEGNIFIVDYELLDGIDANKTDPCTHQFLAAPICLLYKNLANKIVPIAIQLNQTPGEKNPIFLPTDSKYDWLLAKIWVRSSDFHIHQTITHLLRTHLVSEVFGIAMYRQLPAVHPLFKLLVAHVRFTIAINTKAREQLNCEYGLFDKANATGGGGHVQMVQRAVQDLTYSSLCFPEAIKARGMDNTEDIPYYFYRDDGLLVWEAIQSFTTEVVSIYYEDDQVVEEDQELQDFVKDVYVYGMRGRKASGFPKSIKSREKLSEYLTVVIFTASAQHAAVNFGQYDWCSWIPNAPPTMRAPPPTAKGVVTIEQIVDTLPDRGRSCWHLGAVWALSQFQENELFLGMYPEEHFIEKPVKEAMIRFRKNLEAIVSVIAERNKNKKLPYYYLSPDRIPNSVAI
The experiment in a line: 5-lipoxygenase activity in vitro (A23187-stimulated rat peritoneal cells, leukotriene B4 and 5-HETE production). It is filed as cell-based. Conditions: final concentration of 10^-6 M; A23187 2×10^-6 M. The protocol: The following method was used to assay 5-lipoxygenase activity in vitro: Rat peritoneal cells were harvested by i.p. injection of 10 ml Hank's balanced salt solution (GIBCO, cat No. 4025, U.S.A.) containing 12.5 U/ml sodium heparin (Leo, Denmark) in anaesthesized rats. The resulting cell suspension, which mainly contained macrophages, was transferred to a test tube and washed twice by centrifugation (200 g, 10 min.) and resuspended in Hank's balanced salt solution containing 0.5% bovine serum albumin (BSA) (Sigma Chem. Co., U.S.A.). The cells from 9 rats were finally resuspended in Hank's balanced salt solution (with BSA) containing 5μCi [1-^14 C]arachidonic acid (The Radiochemical Centre, Amersham, U.K.) and incubated for 90 minutes at 37° C. This caused labelling of cell membrane phospholipids as radioactive arachidonic acid was incorporated in the 2-position of the glycerol moiety. Excess arachidonic acid was then removed by washing the cells twice as described above. The cells were finally resuspended in the same solution (without BSA) at 10^7 cells/ml. 475 μl of the cell suspension was preincubated at 37° C. for 5 minutes with either 5 μl dimethylsalphoxide (DMSO) (control tube), or 5 μl of a drug solution in DMSO. Then 20 μl of a mixture of equal volumes of the calcium ionophore A23187, 10^-4 M in ethanol (Calbiochem, U.S.A.), and 0.4M CaCl2 in water was added. The final concentration of A23187 was thus 2×10^-6 M, and of Ca^++ 8 mM. After 5 minutes of incubation the tubes were transferred to an ice-bath and centrifuged for 10 minutes at 3,000 g (4° C.). An aliquot of the supernatant was counted by liquid scintillation spectrometry in order to calculate the total radioactive release induced by A23187 in presence of drugs. A decrease in radioactive release was taken as indication of phospholipase A2 inhibition. The supernatant was then extracted with ethyl acetate (2 ml), adjusted to pH 3 with 1N HCl and further extracted with 2 ml ethyl acetate. The combined extracts were evaporated to dryness in vacuo, the residue was redissolved in a small volume of methanol and applied by means of a Desaga Autospotter™ to a silica-gel coated thin-layer plate fitted with a polar concentrating zone (Merck Art. 11798, Darmstadt, F.R.G.). The plates were developed in the organic layer of the solvent mixture ethyl acetate/acetic acid/iso-octane/water (55:10:25:50). Radioactive spots were detected by autoradiography (AGFA-GEVAERT, Osray-RPI X-ray film, Belgium), and changes induced by drugs in the metabolic pattern of arachidonic acid were quantified by a laser densitometer (LKB, Ultroscan ™2202, Bromma, Sweden) in combination with an integrating computer (SP 4100, Spectra-Physics, San Jose, Calif., U.S.A.). […]

A further test concerns cyclooxygenase. The experiment in a line: synthesis of cyclooxygenase products in A23187-stimulated rat peritoneal cells. It is filed as cell-based. To be noted: final concentration of 10^-6 M. The protocol:
The following method was used to assay 5-lipoxygenase activity in vitro: Rat peritoneal cells were harvested by i.p. injection of 10 ml Hank's balanced salt solution (GIBCO, cat No. 4025, U.S.A.) containing 12.5 U/ml sodium heparin (Leo, Denmark) in anaesthesized rats. The resulting cell suspension, which mainly contained macrophages, was transferred to a test tube and washed twice by centrifugation (200 g, 10 min.) and resuspended in Hank's balanced salt solution containing 0.5% bovine serum albumin (BSA) (Sigma Chem. Co., U.S.A.). The cells from 9 rats were finally resuspended in Hank's balanced salt solution (with BSA) containing 5μCi [1-^14 C]arachidonic acid (The Radiochemical Centre, Amersham, U.K.) and incubated for 90 minutes at 37° C. This caused labelling of cell membrane phospholipids as radioactive arachidonic acid was incorporated in the 2-position of the glycerol moiety. Excess arachidonic acid was then removed by washing the cells twice as described above. The cells were finally resuspended in the same solution (without BSA) at 10^7 cells/ml. 475 μl of the cell suspension was preincubated at 37° C. for 5 minutes with either 5 μl dimethylsalphoxide (DMSO) (control tube), or 5 μl of a drug solution in DMSO. Then 20 μl of a mixture of equal volumes of the calcium ionophore A23187, 10^-4 M in ethanol (Calbiochem, U.S.A.), and 0.4M CaCl2 in water was added. The final concentration of A23187 was thus 2×10^-6 M, and of Ca^++ 8 mM. After 5 minutes of incubation the tubes were transferred to an ice-bath and centrifuged for 10 minutes at 3,000 g (4° C.). An aliquot of the supernatant was counted by liquid scintillation spectrometry in order to calculate the total radioactive release induced by A23187 in presence of drugs. A decrease in radioactive release was taken as indication of phospholipase A2 inhibition. The supernatant was then extracted with ethyl acetate (2 ml), adjusted to pH 3 with 1N HCl and further extracted with 2 ml ethyl acetate. The combined extracts were evaporated to dryness in vacuo, the residue was redissolved in a small volume of methanol and applied by means of a Desaga Autospotter™ to a silica-gel coated thin-layer plate fitted with a polar concentrating zone (Merck Art. 11798, Darmstadt, F.R.G.). The plates were developed in the organic layer of the solvent mixture ethyl acetate/acetic acid/iso-octane/water (55:10:25:50). Radioactive spots were detected by autoradiography (AGFA-GEVAERT, Osray-RPI X-ray film, Belgium), and changes induced by drugs in the metabolic pattern of arachidonic acid were quantified by a laser densitometer (LKB, Ultroscan ™2202, Bromma, Sweden) in combination with an integrating computer (SP 4100, Spectra-Physics, San Jose, Calif., U.S.A.).
These cells produced measurable amounts of radioactive 6-keto-prostaglandinF1α, thromboxane B2, prostaglandin D2, hydroxyheptadecatrienoic acid (HHT) (all cyclooxygenase products), 5-hydroxyeicosatetraenoic acid (5-HETE) and leukotriene B4 (both 5-lipoxygenase products).
At the same time, a decrease in synthesis of the cyclooxygenase products HHT, prostaglandin D2, thromboxane B2 and 6-ketoprostaglandin F1α was not observed. This pattern of drug activity is indicative of truly specific 5-lipoxygenase inhibition.

For test [1], the system named is guinea-pig ileum strips (LTD4). Kind of test: inhibition of LTD4-induced contraction of guinea-pig ileum strips. It is filed as cell-based. Conditions: LTD4 at 10^-9 M; compound added 2 minutes prior; atropine and indomethacin present. The protocol:
Leukotriene antagonists may be identified by observing the contractions elicited in preparations of guinea-pig ileum strips suspended in a physiological buffer by addition of pure leukotriene D4 (LTD4) (10). The ileum strips are connected to an isotonic transducer, and the contractions are continuously recorded on a multichannel recorder. Before addition of LTD4, atropine and indomethacin are added to the buffer in order to block any cholinergic or prostaglandin mediated contractile effects. Test compounds to be studied with respect to leukotriene antagonism are dissolved in DMSO and added to the organ bath 2 minutes prior to addition of LTD4 at 10^-9 M (final concentration), the final concentration of DMSO being 0.1%, a concentration which can be shown not to affect the ileum response to LTD4. The test compounds may be added at various concentrations, often beginning at […] and then decreasing the concentration in case of antagonism.
When the compounds of the present invention were added to the ileum preparation before addition of LTD4 a significant inhibition occurred of the specific LTD4 -induced contraction. […] On other hand, contractions induced with histamine at 10^-7 M were not inhibited by these compounds even at micromolar concentrations.

Test [2] concerns the target T2, guinea-pig tracheal strips (LTD4) (Cavia porcellus, UniProt Q2NNR5).
T2 construct: from tissue; host or cells: guinea-pig tracheal strips
T2 sequence (Q2NNR5 1-340): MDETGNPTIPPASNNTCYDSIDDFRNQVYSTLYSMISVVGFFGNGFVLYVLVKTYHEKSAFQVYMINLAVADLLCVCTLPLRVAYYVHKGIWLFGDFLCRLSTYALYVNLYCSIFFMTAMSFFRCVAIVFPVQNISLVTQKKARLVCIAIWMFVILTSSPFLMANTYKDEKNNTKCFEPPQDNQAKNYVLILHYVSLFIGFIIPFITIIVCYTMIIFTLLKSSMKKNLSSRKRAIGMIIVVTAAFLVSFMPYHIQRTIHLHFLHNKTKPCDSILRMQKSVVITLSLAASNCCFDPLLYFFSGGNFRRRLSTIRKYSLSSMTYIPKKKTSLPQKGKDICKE
Kind of test: leukotriene antagonism on guinea-pig tracheal strips (LTD4 concentration-response). It is filed as cell-based. To be noted: negative logarithm of the antagonist dissociation constant, -log([antagonist]/(dose ratio -1)), indomethacin present. The text has this:
Leukotriene antagonists may be further characterized using guinea-pig tracheal strips instead of ileum strips (10). In this relevant in vitro model of human airways (11) tracheal strips are suspended in a physiological buffer containing indomethacin. A concentration-response curve to LTD4 is generated in the presence and absence of the leukotriene antagonists. From these curves the potency of a leukotriene antagonist may be expressed as the pKB value, the negative logarithm of the antagonist dissociation constant. The pKB value is determined as -log([antagonist]/(dose ratio -1)), where the dose ratio is defined as EC50 (presence of antagonist)/EC50 (absence of antagonist) and EC50 refers to the concentration of LTD4 eliciting 50% of the maximum response to LTD4 (12).

The next test has as its target T3, LTD4 receptor (Cavia porcellus, UniProt Q2NNR5).
T3 construct: from tissue; host or cells: guinea-pig lung membranes
T3 sequence (Q2NNR5 1-340): T2 sequence (Q2NNR5 1-340)
The experiment in a line: [3H]LTD4 receptor binding, guinea-pig lung membranes, direct competition assay. Conditions: negative logarithm of the molar concentration inhibiting [3H]LTD4 binding by 50%. The text has this: It is of importance to investigate the receptor binding properties of leukotriene antagonists in relation to their pKB values (13), i.e. to correlate antagonist receptor blocking with inhibition of smooth muscle contraction. Receptor binding studies may be performed with guinea-pig lung membranes in a direct competition assay between a leukotriene antagonist and [^3 H]LTD4 for binding to the LTD4 receptor (10,13).

Take `CCOC(=O)[C@H](O)[C@H](Nc1ccc(OCc2ccc3ccccc3n2)cc1)c1ccccc1` (relative stereo) [Example 11, (2S,3R;2S,3S)-3-[4-(2-Quinolylmethyloxy)-anilino]-2-hydroxy-3-phenyl propionic acid ethyl ester]: at 5-lipoxygenase, the “decrease in the production of 5-HETE” value was “significant and specific decrease”; the “decrease in the production of leukotriene B4” value is “significant and specific decrease”. In addition, in the test with cyclooxygenase, the “decrease in synthesis of the cyclooxygenase product 6-ketoprostaglandin F1α” value is “not observed”, the “decrease in synthesis of the cyclooxygenase product HHT” value is “not observed”, the “decrease in synthesis of the cyclooxygenase product prostaglandin D2” value is given as “not observed” and the “decrease in synthesis of the cyclooxygenase product thromboxane B2” value is given as “not observed”.

As to `O=C(O)C(Nc1ccc(OCc2ccc3ccccc3n2)cc1)c1ccccc1` (racemic) [Example 17, (S,R)-2-[4-(2-Quinolylmethyloxy)-anilino]-2-phenyl acetic acid], the “concentrations at which inhibition of LTD4-induced contraction occurred” value in test [1] is “submicromolar range”.

For the molecule `O=C(O)C(Nc1cccc(OCc2ccc3ccccc3n2)c1)c1ccccc1` (racemic) [Example 15, (S,R)-2-[3-(2-Quinolylmethyloxy)-anilino]-2-phenyl acetic acid], the Kb in test [2] is 1 nM. The IC50 at LTD4 receptor is 15.8 nM.

Turning to `O=C(O)[C@H](O)[C@H](Nc1cccc(OCc2ccc3ccccc3n2)c1)c1ccccc1` (relative stereo) [Example 1, (2R,3R;2S,3S)-3-[3-(2-Quinolylmethoxy)-anilino]-2-hydroxy-3-phenyl propionic acid, sodium salt], the Kb in test [2] was 0.2 nM. Further, the IC50 on LTD4 receptor is 2.51 nM.

Regarding `CCOC(=O)[C@H](O)[C@H](Nc1cccc(OCc2ccc3ccccc3n2)c1)c1cccc(Cl)c1` (relative stereo) [Example 9], on 5-lipoxygenase, the “decrease in the production of 5-HETE” value was “significant and specific decrease”; the “decrease in the production of leukotriene B4” value was “significant and specific decrease”. In the test on cyclooxygenase, the “decrease in synthesis of the cyclooxygenase product 6-ketoprostaglandin F1α” value was “not observed”, the “decrease in synthesis of the cyclooxygenase product HHT” value is “not observed”, the “decrease in synthesis of the cyclooxygenase product prostaglandin D2” value is listed as “not observed” and the “decrease in synthesis of the cyclooxygenase product thromboxane B2” value is recorded as “not observed”.
